The values below come from patent US8962587B2, “Gene delivery of OCT4 and SirT1 and pharmaceutical compositions thereof” (Taipei Veterans General Hospital, priority 2011, dated 2015).

The subject of the experiment is aRPE cells. As to the kind of experiment: intracellular ROS, GSH, MDA, antioxidant enzyme activity and survival in aRPE cells (basal, H2O2, BSO, Tempol). Conditions: aRPE-PU cells, pretreatment 0.5 mmol/L, then 100 μM H2O2, p<0.05 vs H2O2. The experiment is classed as cell-based, human. On the procedure:
The results were expressed as nmol/g protein. Total SOD activity was determined by Superoxide Dismutase Activity Colorimetric Assay Kit (Abcam) according to manufacturer's protocol. SOD activity was expressed as units/g protein. GSH-Px and CAT activities were measured by glutathione peroxidase cellular activity assay kit and catalase assay kit, both are purchased from Sigma.
Cultured aRPE cells were washed with PBS twice and treated with 100 μM H2O2. After 8 hours, the medium was removed, and the cells were collected for the subsequent experiments. […] In brief, cells were incubated with […] DCFH-DA in culture medium for 30 min at 37° C., followed by washing with PBS and flow cytometric analysis. The intracellular GSH content was detected by colorimetric assay using the GSH-400 kit (OXIS International, Portland, Oreg., USA). In the GSH-400 assay, 4-chloro-1-methyl-7-trifluoromethyl-quinolinium methylsulfate was added to react with all mercaptans in the sample, leading to the formation of substitution products, […]. Then, 30% sodium hydroxide was used to mediate a β-elimination reaction and specifically transform GSH-thioester into a chromophoricthione with a maximal absorbance wavelength at 400 nm that was detected by a spectrophotometer.

SMILES strings stand for the structures.

Turning to `CC1(C)CC(O)CC(C)(C)N1[O]` [Tempol, 4-hydroxy-2,2,6,6-tetramethylpiperidinyloxy], the “H2O2-induced ROS production” value is reported as “decreased” and the H2O2-induced cell death entry is “decreased”.
